These results are taken from patent US8173696B2, “Inhibitors of cysteine proteases and methods of use thereof” (Baylor University, priority 2007, dated 2012).

The target in test [1] is T1, Human liver cathepsin L (Homo sapiens, UniProt P07711).
T1 construct: from tissue; host or cells: human liver
Put plainly: Cathepsin L inhibition in vitro (Z-FR-AMC fluorescence). In kind it is biochemical. Here is the method:
Human liver cathepsin L (1 nM) was incubated in 50 mM sodium acetate buffer, pH 5.5 containing 1 mM EDTA, 2 mM DTT, 0.001% (v/v) brij 35 with potential inhibitors at 20 different concentrations (from 0.05 nM to 50 μM) at 25° C. for 5 minutes before 100 μL substrate (benzyloxycarbonyl-L-phenylalanyl-L-arginyl-7-amido-4-methylcoumarin, abbreviated as Z-FR-AMC, 50 μM in final assay condition) was added to the enzyme-inhibitor mixture; total volume was 200 μL. Controls were performed using enzyme alone, substrate alone, and enzyme with DMSO. […] Spectra were taken at 3-sec intervals for 3 minutes. IC50 values were determined by non-linear regression analysis using vo(inh)=VMAX/{1+10(logIC50−x)*Hillslope} and Prism software (GraphPad).

The target in test [2] is Cruzain (Trypanosoma cruzi, UniProt P25779). In words: biochemical. The class given is biochemical. The settings on record: Table A; 0.1 nM cruzain, pH 5.50, 25° C., 10 μM Z-Phe-Arg-AMC. How it is done:
Cruzain (0.1 nM) in 100 mM sodium acetate buffer (pH 5.50) containing 5 mM DTT was preincubated for 5 min at 25° C. with inhibitor.

The subject of test [3] is cathepsin L. Put plainly: Inhibition of activated cathepsin L in DU-145 cell lysates. Particulars: DU-145 cell lysates preincubated for 24 h with compound, following removal of media, replicate samples a-c; for activity (cathepsin L activity after activation): control 6.93E−03; for cps (cathepsin L activity after activation): control 26950. In kind it is cell-based. How it is done:
(§1) A prostrate carcinoma derived cell line (DU-145) was maintained in free phenol red DMEM supplemented with 10% fetal bovine serum, 1% glutamine, 1% glutamax, 1% Penicillin-Streptomycin and 1 mM sodium pyruvate, at 37° C. in an atmosphere of 95% air/5% CO2. DU145 was plated at 4×10^6 cells/10 cm Petri dish for dense, super confluent density. These cultures were incubated for 3 days before collection. Twenty-four hours prior to harvesting, cells were fed with serum-free media or serum-free media containing inhibitors at a final concentration of 20 μM. On the day of harvesting, the serum-free medium was collected for assay of Cathepsin L activity secreted in the medium. The cells were rinsed in cold PBS (pH 7.2) and collected in cold PBS containing […]. The cells were lysed using a Sonicator (Misonix 3000) at medium setting with pauses at 0° C. for temperature equilibration. Then the homogenate was centrifuged at 13,000×g for 20 min and the supernatant saved. […] Fluorescence was measured in a Fluoro Max 2 (Jobin Yvon) spectrofluorometer at an excitation wavelength of 355 nm and an emission wavelength of 460 nm. The substrate is hydrolyzed by cathepsin L and to a smaller extent by cathepsin B, therefore the activity is referred to as cathepsin L+B activity. Data analysis was performed using Prism software (GraphPad version 4). Data corresponding to cathepsin L activity (after activation) in cell lysates preincubated for 24 h with Compound 14 and following the removal of media is summarized in Table 5 below. Data corresponding to cathepsin L activity (after activation) in cell lysates preincubated for 24 h with Compound 27 and following the removal of media is summarized in Table 6 below.

Test [4] relates to cathepsin L. In words: Inhibition of activated cathepsin L secreted in DU-145 cell conditioned media. The class given is cell-based. Particulars: compound 20 μM, replicate samples a-c. How it is done:
as §1, with “cell conditioned media in the presence of” for “cell lysates preincubated for 24 h with”, “14 (20 μM)” for “14 and following the removal of media”, “Table 3” for “Table 5”, “27 (20 μM)” for “27 and following the removal of media”, “Table 4” for “Table 6”

Test [5] has as its target Cat B (Homo sapiens, UniProt P07858). Put plainly: Cathepsin B inhibition in vitro. The class given is biochemical. How it is done: For in vitro cysteine protease inhibition determinations, a compound's effectiveness can be given by an IC50 value. In these assays, the enzyme to be inhibited (e.g., a cruzain or cruzipain, a rhodesain, a brucipain, a congopain, a falcipain, CPB2.8 Delta CTE, a cathepsin-L, cathepsin-B, a cathepsin-H, a cathepsin-K, a cathepsin-S) is first incubated with varying concentrations (about 20-50,000 nM) of a test compound. To this is added a short peptide substrate of the enzyme of 1 to 10 amino acids, usually a di- or tri-peptide substrate, which is labeled with either a fluorogenic or chromogenic moiety. An exemplary chromogenic moiety is p-nitro-anilide (pNA). […] Exemplary peptide substrates include Phe-Arg, Arg-Arg, Phe-Arg-X (X=Ala, Arg), and Phe-X-Ser-Arg-Gln (X=Arg, 4-aminomethyl-phenylalanine (Arm), 4-aminomethyl-N-isopropyl-phenylalanin-e (laf), 4-piperidinyl-alanine (Ppa) or 4-aminocyclohexyl-alanine (Aca)). Cleavage of the labeled substrate induces a chromogenic or fluorescent signal that is measured using spectrophotometer or a spectrofluorometer, respectively. Signals induced in the presence of varying concentrations of test compound are measured in comparison to a positive control of enzyme and substrate and a negative control of enzyme in diluent (e.g., DMSO). Spontaneous cleavage of substrate is measured in controls with substrate alone. IC50 values are determined graphically using compound inhibitor concentrations in the linear portion of a plot of inhibition versus log [I].

The mark [6] stands for this setting: Table A, 1 nM human liver cathepsin L, pH 5.5, 25° C., 50 μM Z-FR-AMC, read-out: Cat L IC50.

Like-named read-outs stand apart in the source and are kept apart here. A value given as a limit tells only on which side of the number the result lay.

Sequence of Cruzain (P25779 123-467): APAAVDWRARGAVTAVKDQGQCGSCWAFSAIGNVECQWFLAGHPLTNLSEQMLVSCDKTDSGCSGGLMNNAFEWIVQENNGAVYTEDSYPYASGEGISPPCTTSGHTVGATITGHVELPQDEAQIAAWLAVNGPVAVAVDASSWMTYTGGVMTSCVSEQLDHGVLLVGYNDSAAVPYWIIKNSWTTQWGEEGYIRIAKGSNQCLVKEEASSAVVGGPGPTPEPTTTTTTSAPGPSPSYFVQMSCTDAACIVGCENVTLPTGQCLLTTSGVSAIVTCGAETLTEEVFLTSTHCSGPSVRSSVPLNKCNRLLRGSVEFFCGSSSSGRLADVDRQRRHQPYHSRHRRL
T1 sequence (P07711 114-333): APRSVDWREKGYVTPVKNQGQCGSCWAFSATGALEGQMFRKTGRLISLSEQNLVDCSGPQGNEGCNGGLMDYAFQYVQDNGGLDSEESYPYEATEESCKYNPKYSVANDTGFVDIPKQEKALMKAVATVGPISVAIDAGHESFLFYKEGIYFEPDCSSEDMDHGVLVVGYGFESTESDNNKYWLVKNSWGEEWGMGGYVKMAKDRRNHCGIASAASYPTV

`CC(=O)C1=CCCc2ccccc21` [Compound 37, [1-(3,4-Dihydronaphthalenyl)]methyl ketone]: the IC50 in test [1] (setting [6]) is above 10000 nM.

Consider `CC/C(=N\NC(N)=S)c1cccc(N)c1` [Compound 8, 3-Aminopropiophenone thiosemicarbazone], for which the IC50 was 1640 nM in test [1] (setting [6]) and 3640 nM in test [2].

As for `NC(=S)N/N=C1\CCS(=O)(=O)c2c(Br)cc(Br)cc21` [Compound 24, 6,8-Dibromo-1,1-dioxo-1-thiochroman-4-one thiosemicarbazone], the IC50 in test [1] (setting [6]) came to 716 nM; in test [2], 820 nM.

For `NC(=S)N/N=C1\CCS(=O)(=O)c2ccccc21` [Compound 27], the “activity (cathepsin L activity after activation)” value in test [3] (listed as 27a) was determined as 0.00308 µM/s; in test [3] (listed as 27b), 0.00255 µM/s; in test [3] (listed as 27c) it was 0.00275 µM/s; in test [4] (control 1.50E−03, listed as 27a), 0.000101 µM/s; in test [4] (control 1.50E−03, listed as 27b), 9.46e-05 µM/s; in test [4] (control 1.50E−03, listed as 27c), 9.81e-05 µM/s. Further, the “cps (cathepsin L activity after activation)” value in test [3] (listed as 27a) is given as 11990 cps; in test [3] (listed as 27b) it was 9918 cps; in test [3] (listed as 27c), 10690 cps; in test [4] (control 5848, listed as 27a), 393.7 cps; in test [4] (control 5848, listed as 27b) it was 367.5 cps; in test [4] (control 5848, listed as 27c), 381.1 cps. In addition, the IC50 in test [1] (setting [6]) came out at 5050 nM.

For the compound `C=CC(=O)C1=CCCc2ccc(Br)cc21` [Compound 38], the IC50 in test [1] (setting [6]) came to 372 nM.

Consider `NC(=S)N/N=C1\CCOc2ccccc21` [Compound 26], for which the IC50 in test [1] (setting [6]) is 6380 nM.

Take `CC/C(=N\NC(N)=S)c1cccc(O)c1` [Compound 7, 1-(3-Hydroxyphenyl)-1-propanone thiosemicarbazone]: in test [1] (setting [6]), the IC50 was determined as 2570 nM.

Take `NC(=S)N/N=C1\CCc2ccc(Br)cc2C1` [Compound 69, 7-Bromo-2-tetralone thiosemicarbazone]: the IC50 in test [5] (Table A, read-out: Cat B IC50) was below 50000 nM; in test [1] (setting [6]) it was 4260 nM; in test [2], above 17000 nM.

As for `NC(=S)N/N=C1\CCC(c2ccc(Br)cc2)C1` (stereo not shown) [Compound 46], the IC50 in test [1] (setting [6]) is above 10000 nM; in test [2] it was above 5000 nM.

For the compound `NC(=S)N/N=C(\c1ccccc1)c1cccc(Br)c1` [Compound 13, Phenyl(3-bromophenyl) ketone thiosemicarbazone], the IC50 in test [1] (setting [6]) was 16200 nM; in test [2], 80 nM.

On to `NC(=S)N/N=C1\CCc2ccccc21` [Compound 49], for which, in test [1] (setting [6]), the IC50 was above 10000 nM.

Consider `NC(=S)N/N=C1\CCCC(c2ccc(Br)cc2)C1` (stereo not shown) [Compound 47], for which the IC50 is 2910 nM in test [1] (setting [6]) and above 7000 nM in test [2].

On to `NC(=S)N/N=C1\CCS(=O)(=O)c2ccc(Br)cc21` [Compound 23, 6-Bromo-1,1-dioxo-1-thiochroman-4-one thiosemicarbazone], for which the IC50 in test [1] (setting [6]) amounted to 1 nM; in test [2], 210 nM.

With `NC(=S)N/N=C1\CCCc2c(Br)cccc21` [Compound 20, 5-Bromo-1-tetralone thiosemicarbazone], the IC50 was 367 nM in test [1] (setting [6]) and 1200 nM in test [2].

In the case of `NC(=S)N/N=C1\CCc2c(Br)cc(Br)cc2C1` [Compound 70, 5,7-Dibromo-2-tetralone thiosemicarbazone], the IC50 was above 50000 nM in test [5] (Table A, read-out: Cat B IC50); 10900 nM in test [1] (setting [6]); 4480 nM in test [2].

For the compound `CC/C(=N\NC(N)=S)c1cccc([N+](=O)[O-])c1` [Compound 6, 3-Nitropropiophenone thiosemicarbazone], the IC50 in test [1] (setting [6]) came to 5790 nM; in test [2], 860 nM.

For `NC(=S)N/N=C1\CCc2ccccc2O1` [Compound 48], the IC50 in test [1] (setting [6]) is 2450 nM; in test [2], above 17000 nM.

Consider `NC(=S)N/N=C1\CCCc2ccc(Br)cc21` [Compound 21, 7-Bromo-1-tetralone thiosemicarbazone], for which the IC50 stood at 619 nM in test [1] (setting [6]) and 17 nM in test [2].

Turning to `CC/C(=N\NC(N)=S)c1cccc(Br)c1` [Compound 5, 3-Bromopropiophenone thiosemicarbazone], the IC50 in test [5] (Table B, unit inferred, read-out: Cat B) was above 50000 nM; in test [1] (Table B, unit inferred, read-out: Cat L) it was above 10000 nM.
